Test results reported in patent US20190127413A1, “Compositions and Methods for Non-Toxic Delivery of Antiprogestins” (Repros Therapeutics Inc., priority 2010, published 2019).
“Also recorded” adds a separate entry of the source.

How the values were obtained:
[1] = Clinical trials of daily oral CDB-4124 (Proellex) capsules: liver toxicity, liver enzymes; assay type: in vivo, human
Procedure: The maximum concentrations of CDB-4124 and its mono-demethylated metabolite (CDB-4453) for the 12.5 mg dose were 25% of the 50 mg dose. All liver toxicities resolved in those women that returned for safety follow-ups, including those subjects that developed liver-associated serious adverse effects (SAEs).
To date, over 600 patients, including women with confirmed cases of endometriosis or uterine fibroids, have participated in double blind and open label clinical trials in which patients were administered daily oral capsules containing doses of 12.5 mg, 25 mg or 50 mg CDB-4124 (Proellex) for over one month. Of these patients, about 500 received Proellex and about 130 received a placebo. Of the patients receiving Proellex, about 190 received a dose of 50 mg CDB-4124 per day, about 260 received a dose of 25 mg CDB-4124 per day and about 55 received a dose of 12.5 mg per day.
Liver enzymes were frequently monitored in participating subjects. The liver enzyme level at which the clinical trials would be discontinued was set at an increase in liver aminotransferases greater than, or equal to three times the Upper Limit of Normal (≥3×ULN).
Of the nine subjects with a confirmed increase in liver enzymes ≥3×ULN, seven were severe enough elevations to be reported to the FDA as SAEs. One of these seven subjects had been receiving a dose of 25 mg CDB-4124 per day; the remaining six subjects had been receiving a dose of 50 mg CDB-4124 per day. Liver enzymes ≥3×ULN persisted in five of the nine subjects with a confirmed increase in liver enzymes ≥3×ULN. These five subjects had previously been dosed with the 50 mg dose. One of these subjects is receiving oral medication for treatment of their liver condition. Clinical trials involving CDB-4124 at all doses were voluntarily suspended as a result of these SAEs and were subsequently placed on clinical hold by the United States Food and Drug Administration for safety reasons.

[2] = Pharmacokinetic studies on participating clinical trial subjects, oral CDB-4124; assay type: in vivo, human; details: for maximum concentration for the 12.5 mg dose as percentage of the 50 mg dose: oral CDB-4124, parent and mono-demethylated metabolite
Procedure: (§1) Pharmacokinetic studies performed on participating subjects detected a high Cmax and a Tmax at 1-2 hours following administration. […] Metabolism of CDB-4124 by the liver provides the opportunity for liver damage and greatly reduces the concentration of the antiprogestin before it reaches the systemic circulation. Thus, alternative routes of administration of antiprogestins that avoid first pass metabolism such as, without limitation, intravenous, intramuscular, and sublingual, should allow antiprogestins to be absorbed directly into the systemic circulation and thereby provide a method for treating progestone-dependent conditions while avoiding liver toxicity. Administration routes which avoid first pass metabolism may also require less drug per dose to achieve the same therapeutic benefit relative to oral administration.

[3] = system: primary cultures of human and animal hepatocytes; assay: Metabolism in primary cultures of hepatocytes; assay type: in vitro ADME; details: primary hepatocyte cultures
Procedure: as §1

[4] = Oral versus vaginal pharmacokinetics in beagles; assay type: in vivo; details: 25 mg; for metabolism after peak plasma concentration: oral, micronized powder; for metabolism / peak plasma concentration (Cmax): vaginal suppository
Procedure: Beagles were administered 25 mg of CDB-4124 or CDB-4453 (the monodemethylated metabolite of CDB-4124) formulated as either a micronized powder or a vaginal suppository. […] Moreover, systemic exposure of the drug is much lower when administered locally (compare AUC for CDB-4124 and CDB-4453 when administered vaginally vs. orally).

[5] = Cmax after vaginal administration extrapolated from beagles to humans; assay type: in vivo; details: for predicted Cmax for vaginal administration as percentage of the same dose administered orally: humans
Procedure: The maximum circulating concentrations (Cmax) of CDB-4124 obtained following vaginal administration to beagles were extrapolated to humans for the 12.5 mg, 25 mg and 50 mg doses actually administered during the Phase III clinical studies.

[6] = system: progesterone-induced endometrial proliferation; assay: Anti-Clauberg study, subcutaneous versus oral; assay type: in vivo, rabbits
From the text: To determine whether the low circulating levels of CDB-4124 when administered locally could have any impact predictive of efficacy, an anti-Clauberg study was run in which immature estradiol-primed rabbits were coadministered progesterone and various doses of CDB-4124 by either subcutaneous or oral administration. At least 3 different highly trained individuals evaluated the rabbit uterus for glandular growth, for complexity and overall progesterone-induced “development”. The inhibition (by percentage) of progesterone-induced endometrial proliferation at each dose was assayed. […] However, maximal inhibition required a 8-fold increase in dosage when administered orally (i.e. 8 mg/kg). Importantly 8 mg/kg corresponds closely to the 50 mg/day dose of CDB-4124 administered to the female subjects described in Example 4.

[7] = system: progesterone-induced endometrial proliferation; assay: Anti-Clauberg study, vaginal versus oral (McPhail index); assay type: in vivo, rabbits
Procedure: Another anti-Clauberg study was run in which immature estradiol-primed rabbits were administered progesterone alone (vehicle control) or were co-administered progesterone and three doses of CDB-4124 by either vaginal or oral administration. The inhibition of progesterone-induced endometrial proliferation at each dose was assayed. FIG. 3 illustrates the decrease in the McPhail index following increasing doses of CDB-4124 administered by either route. Maximal inhibition (i.e. a decrease in the McPhail index to 1.5) occurred at 0.2 mg/kg CDB-4124 when administered vaginally, compared to 0.8 mg/kg when administered orally.

glucocorticoid receptor = biological target: T1, glucocorticoid receptor (Homo sapiens, UniProt P04150); details: cited from earlier work
T1 sequence (P04150 1-777): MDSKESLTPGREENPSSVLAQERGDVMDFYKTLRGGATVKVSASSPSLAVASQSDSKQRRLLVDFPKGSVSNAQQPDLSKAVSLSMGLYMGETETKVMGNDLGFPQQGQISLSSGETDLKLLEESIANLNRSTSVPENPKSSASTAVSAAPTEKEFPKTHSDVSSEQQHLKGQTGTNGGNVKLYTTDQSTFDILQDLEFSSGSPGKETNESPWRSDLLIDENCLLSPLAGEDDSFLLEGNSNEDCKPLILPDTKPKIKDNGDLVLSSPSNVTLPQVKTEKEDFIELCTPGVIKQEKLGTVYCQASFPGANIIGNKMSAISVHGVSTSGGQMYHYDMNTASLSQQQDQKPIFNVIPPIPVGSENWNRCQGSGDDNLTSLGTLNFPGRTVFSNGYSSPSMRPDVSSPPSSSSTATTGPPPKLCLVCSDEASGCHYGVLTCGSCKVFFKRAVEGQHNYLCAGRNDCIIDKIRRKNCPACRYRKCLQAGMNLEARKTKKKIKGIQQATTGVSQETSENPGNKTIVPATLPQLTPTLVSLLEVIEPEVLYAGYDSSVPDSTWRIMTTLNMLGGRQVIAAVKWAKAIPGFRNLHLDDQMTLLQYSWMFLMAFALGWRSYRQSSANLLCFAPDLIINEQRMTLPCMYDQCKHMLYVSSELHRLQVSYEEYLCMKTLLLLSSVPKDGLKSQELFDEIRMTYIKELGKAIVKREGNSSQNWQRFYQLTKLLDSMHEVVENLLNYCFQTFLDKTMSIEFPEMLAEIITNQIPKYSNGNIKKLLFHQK

## COCC(=O)[C@@]1(OC(C)=O)CC[C@H]2[C@@H]3CCC4=CC(=O)CCC4=C3[C@@H](c3ccc(N(C)C)cc3)C[C@@]21C [CDB-4124, 21-methoxy-17α-acetoxy-11β-(4 N, N-dimethylaminophenyl)-19-norpregna-4,9-diene-3,20-dione]
[1]; 25 mg CDB-4124 per day
  subjects with liver enzyme elevation reported as SAE: One
[1]; 50 mg CDB-4124 per day
  subjects with liver enzyme elevation reported as SAE: six
[1]; 50 mg dose
  subjects in whom liver enzymes ≥3×ULN persisted: five
[1]; all doses
  subjects with elevations severe enough to be reported to the FDA as SAEs: seven
  subjects with increase in liver enzymes ≥3×ULN confirmed by repeat test in 48 hours: nine
[1]; all doses, first test
  subjects with increase in liver enzymes ≥3×ULN: thirteen
[1]; oral, 12.5 mg, versus placebo
  adverse liver toxicity signals: no adverse liver toxicity signals different from placebo
[1]; oral, 25 mg/day
  frequency and intensity of liver toxicity effects relative to 50 mg/day: significantly lower in frequency and intensity
[1]; oral, 50 mg/day, Phase III clinical studies
  women exhibiting severe liver toxicity: 3-4%
[1]; therapeutic oral dosages, patients
  liver toxicity on chronic daily administration: exhibit liver toxicity
[2]; after oral ingestion of CDB-4124
  monodemethylated metabolite detected (first pass metabolism): Large quantities; also recorded: Large amounts
[2]; following oral administration
  Cmax: high
[2]; human, in vivo, following oral administration
  Tmax: 1 to 2 h
[2]
  maximum concentration for the 12.5 mg dose as percentage of the 50 mg dose: 25%
[3]
  production of the mono-demethylated metabolite: rapidly produce the mono-demethylated metabolite
[4]
  systemic exposure (AUC), local (vaginal) versus oral: much lower
  metabolism after peak plasma concentration: rapidly metabolized
  metabolism: metabolized slowly
  peak plasma concentration (Cmax): relatively low
[5]; 12.5 mg dose
  predicted Cmax for vaginal administration as percentage of the same dose administered orally: approximately 6.5%
[5]; 50 mg dose
  predicted Cmax for vaginal administration as percentage of the same dose administered orally: approximately 2%
[5]; in vivo, po
  Cmax with 12.5 mg vaginal dose as percentage of that with 50 mg oral dose: 2%
[6]; oral
  dose at which maximal inhibition of progesterone-induced endometrial proliferation was observed: 8 mg/kg
[6]; rabbit, in vivo
  increase in dosage required for maximal inhibition, oral versus subcutaneous: 8 fold
[6]; subcutaneous
  dose at which maximal inhibition of progesterone-induced endometrial proliferation was observed: less than 1 mg/kg
[7]; oral
  dose at which maximal inhibition occurred: 0.8 mg/kg
[7]; vaginal
  dose at which maximal inhibition occurred: 0.2 mg/kg
[7]; vaginal 0.2 mg/kg or oral 0.8 mg/kg
  McPhail index at maximal inhibition: 1.5

## CNc1ccc([C@H]2C[C@@]3(C)[C@@H](CC[C@]3(OC(C)=O)C(=O)COC)[C@@H]3CCC4=CC(=O)CCC4=C32)cc1 [CDB-4453, 21-methoxy-17α-acetoxy-11β-(4-N-methylaminophenyl)-19-norpregna-4,9-diene-3,20-dione]
[2]
  maximum concentration for the 12.5 mg dose as percentage of the 50 mg dose: 25%
[4]
  systemic exposure (AUC), local (vaginal) versus oral: much lower
  metabolism after peak plasma concentration: rapidly metabolized
  metabolism: metabolized slowly
  peak plasma concentration (Cmax): relatively low
Glucocorticoid receptor
  anti-glucocorticoid activity relative to parent CDB-4124: even lower anti-glucocorticoid activity than its parent
